Measurements: patent publication US9018244B2, “Benzopyran compounds, compositions and uses thereof” (Olema Pharmaceuticals, Inc., priority 2011, dated 2015)

How the values were obtained:
[1] = daily oral dose of 40 mg in women; cited from earlier work
[2] = tested on: rodent uterus, human uterine cells; details: cited from earlier work
[3] = biological target: T1, estrogen receptor alpha (ERα) (Homo sapiens, UniProt P03372); assay: ERα expression by immunoblot after anti-estrogen treatment; format: cell-based; details: 100 nM anti-estrogen, 22-24 hours, serum-free medium; MCF-7 breast cells and ECC-1 endometrial cells
T1 construct: endogenous in cells
T1 sequence (P03372 1-595): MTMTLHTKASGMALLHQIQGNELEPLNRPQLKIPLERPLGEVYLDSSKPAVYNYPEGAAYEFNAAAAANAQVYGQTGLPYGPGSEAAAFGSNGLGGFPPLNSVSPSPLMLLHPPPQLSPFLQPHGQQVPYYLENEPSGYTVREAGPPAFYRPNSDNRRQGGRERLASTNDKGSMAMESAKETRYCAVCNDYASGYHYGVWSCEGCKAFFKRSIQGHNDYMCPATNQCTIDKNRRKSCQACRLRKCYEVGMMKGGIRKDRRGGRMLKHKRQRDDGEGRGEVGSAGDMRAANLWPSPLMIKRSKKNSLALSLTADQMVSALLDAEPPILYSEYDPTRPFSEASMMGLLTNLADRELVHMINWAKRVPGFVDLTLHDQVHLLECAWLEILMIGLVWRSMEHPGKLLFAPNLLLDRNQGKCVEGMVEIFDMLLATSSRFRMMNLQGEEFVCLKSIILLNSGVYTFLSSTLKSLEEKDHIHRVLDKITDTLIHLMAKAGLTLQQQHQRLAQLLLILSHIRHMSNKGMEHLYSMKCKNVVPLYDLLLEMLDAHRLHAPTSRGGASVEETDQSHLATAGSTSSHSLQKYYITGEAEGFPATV
Protocol: FIG. 12. […] A) ERα levels in breast cells after treatment with OP-1074 compared to treatment with model anti-estrogens. MCF-7 cells were treated with 100 nM anti-estrogen for 24 hours in serum-free medium and protein extracts immunoblotted with an antibody to ERα (D12, Santa Cruz Biotechnology, Santa Cruz, Calif.). Image is from a single representative experiment and number on top denotes the mean percent ERα expression relative to vehicle from quadruplicate treatments. B) OP-1038 induces degradation of ERα in both MCF-7 breast cells and ECC-1 endometrial cells.
ERα expression was detected in MCF-7 cell lysates treated with 100 nM anti-estrogens in serum-free medium for 22-24 hours and immunoblotted with an antibody specific to ERα as described in the legend to, and depicted in FIG. 12.

[4] = tested on: E2-stimulated AP activity in ECC-1 cells; assay: Inhibition of E2-stimulated AP activity in ECC-1 cells (antagonist mode); format: cell-based, human; details: in the presence of 500 pM E2
From the text: FIG. 2. Alkaline phosphatase (AP) activity in ECC-1 cells correlates with the uterine wet weight of ovariectomized rats, as reported previously in Scafonas, et al. (*; Scafonas et al. “Agonist-like SERM effects on ER alpha-mediated repression of MMPI promoter activity predict in vivo effects on bone and uterus. J Steroid Biochem Mol. Biol. 2008 110(3-5):197-206) and Labrie, et al. (†; Labrie et al. “The combination of a novel selective estrogen receptor modulator with an estrogen protects the mammary gland and uterus in a rodent model: the future of postmenopausal women's health?” Endocrinology. 2003 144(11):4700-6). ECC-1 cells were treated with 500 pM 17β-estradiol (E2) or 1-5 nM anti-estrogens in hormone-depleted medium for 3 days. Note that the racemic mixture of acolbifene, EM-343, was used in the in vitro AP assay. AP activity was measured by incubating a chromogenic AP substrate, p-nitrophenyl phosphate, at 40° C. for 40 minutes followed by measuring the absorbance at 405 nm. Results were from a single representative experiment and reported as the mean percent induction relative to E2 from triplicate treatments, with error bars representing SEM.
FIG. 6. […] A) Comparison of inhibition of E2-stimulated AP activity of various benzopyran compounds (right) compared to published reference compounds (left). ECC-1 cells were treated with 100 nM anti-estrogens in the presence of 500 pM E2 and AP activity was measured as described in FIG. 2. Note that OP-1038 was statistically different from EM-343 and Gauthier compound Ia (p<0.0001 (exact p values stated in graph), calculated using Student's t-test). Results were from a single representative experiment and reported as the mean percent induction relative to E2 from triplicate treatments, with error bars representing SEM. […] IC50's were calculated using the least squares fit method. *Aragon Compound 28 was statistically different from equivalent dose of OP-1038 (p≦0.01, calculated using Student's t-test). […]
Method for performing the alkaline phosphatase (AP) assay. […] Absorbance was read at 405 nm using a plate spectophotometer. […]

[5] = tested on: E2-stimulated estrogen response element (ERE)-regulated reporter gene activity; assay: ERE-tk109-Luc reporter gene assay in MCF-7 cells; format: cell-based, human; details: 100 pM E2, 18-22 hours
Protocol: (§1) FIG. 10. […] A) OP-1074 had similar potency to model anti-estrogens in the ERE reporter gene assay. MCF-7 cells were transiently transfected with ERE-tk109-Luc and treated with anti-estrogens in hormone-depleted medium in the presence of 100 pM E2 for 22 hours. Results were from a single representative experiment and reported as the mean percent induction relative to E2 from triplicate treatments, with error bars representing SEM. […] Results were from a single representative experiment and reported as the mean percent induction relative to E2 from triplicate treatments, with error bars representing SEM. IC50's were calculated using the least squares fit method.
Compounds of invention are tested for their inhibitory activity of estrogen according to the assay methods described in Hodges-Gallagher, L., Valentine, C. V., El Bader, S. and Kushner, P. J. (2007) “Histone Deacetylase Inhibitors Enhance the Efficacy of Hormonal Therapy Agents on Breast Cancer Cells and Blocks Anti-estrogen-Driven Uterine Cell Proliferation” Breast Cancer Res Treat, November; 105(3):297-309. Specifically, an estrogen-responsive reporter gene (ERE-tk109-Luc) was transiently transfected into MCF-7 cells and treated with anti-estrogens in triplicate in the presence of 100 pM 17β-estradiol (E2) for 18-22 hours. Luciferase activity was normalized to activity of E2 alone and IC50's were calculated using the least squares fit method. This method is also described in legend for FIG. 10.

[6] = tested on: human MCF-7 breast cancer cells; assay: E2-stimulated proliferation of MCF-7 breast cancer cells; format: cell-based; details: MCF-7 cells, 100 pM E2, 6-8 days
Protocol: as §1, with “11.” for “10.”, “inhibiting E2-stimulated proliferation of breast cells in vitro.” for “the ERE reporter gene assay.”, “were” for “were transiently transfected with ERE-tk109-Luc and”, “medium for 6-8 days” for “medium”, “E2. Proliferation was measured using Cyquant fluorescent DNA-binding dye (Invitrogen, Grand Island, N.Y.).” for “E2 for 22 hours.”
Proliferation in MCF-7 was measured using a fluorescent DNA binding dye 6-8 days after treatment in triplicate with anti-estrogens in the presence of 100 pM E2 and as described in the legend to, and depicted in FIG. 11.

For `CC1=C(c2ccc(OC(=O)C(C)(C)C)cc2)[C@H](c2ccc(OCCN3CCCCC3)cc2)Oc2cc(OC(=O)C(C)(C)C)ccc21` [EM800], the “Mean drug exposure of circulating acolbifene” value [1] is listed as 15 ng/mL.

In the case of `CC12CCC3c4ccc(O)cc4CC(CCCCCCCCC[S+]([O-])CCCC(F)(F)C(F)(F)F)C3C1CCC2O` (stereo not shown) [fulvestrant], the “Residual estrogen-like action relative to estradiol” value [2] is given as “almost unmeasurable”.

In the case of `CC1=C(c2ccc(O)cc2)[C@H](c2ccc(OCCN3CCCCC3)cc2)Oc2cc(O)ccc21` [EM-652, (S)-3-(4-hydroxyphenyl)-4-methyl-2-(4-(2-(piperidin-1-yl)ethoxy)phenyl)-2H-chromen-7-ol], the “Mean drug exposure of circulating acolbifene” value [1] is given as 8.3 ng/mL.

In the case of `CC1=C(c2ccc(O)cc2)[C@@H](c2ccc(OCCN3CC[C@@H](C)C3)cc2)Oc2cc(O)ccc21` [OP-1075, (2R)-3-(4-hydroxyphenyl)-4-methyl-2-(4-{2-[(3R)-3-methylpyrrolidin-1-yl]ethoxy}phenyl)-2H-chromen-7-ol], the “Degradation of ERα” value [3] is reported as “degrade the receptor”, the “Inhibition of E2-stimulated AP activity” value [4] is reported as “reduced activity” and the “Antagonism of E2-stimulated ERE-regulated reporter gene activity” value [5] is reported as “reduced activity”. For the same molecule, the “Antagonism of E2-stimulated proliferation” value [6] was “reduced activity”.
